Experimental data taken from PubChem BioAssay (NCI).
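Following 48 hours of exposure in 96-well plates, responses at five concentrations were used to interpolate endpoints linearly. At the GI50, growth is halved. TGI: concentration producing complete growth inhibition.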

How the values were obtained:
Experiment in all cases: NCI tumour cell line growth inhibition, 48 h
[1] = system: ACHN renal
[2] = system: SK-MEL-5 melanoma
[3] = system: XF 498 CNS
[4] = system: NCI-H460 lung
[5] = system: HCT-116 colon
[6] = system: UACC-62 melanoma
[7] = system: SW-620 colon
[8] = system: M19-MEL melanoma
[9] = system: DU-145 prostate
[10] = system: UACC-257 melanoma
[11] = system: HL-60(TB) leukemia
[12] = system: DLD-1 colon
[13] = system: IGROV1 ovarian
[14] = system: NCI-H522 lung
[15] = system: SK-MEL-28 melanoma
[16] = system: SNB-78 CNS
[17] = system: SN12K1 renal
[18] = system: TK-10 renal
[19] = system: BT-549 breast
[20] = system: P388/ADR leukemia
[21] = system: HT29 colon
[22] = system: M14 melanoma
[23] = system: K-562 leukemia
[24] = system: HCT-15 colon
[25] = system: COLO 205 colon
[26] = system: KM20L2 colon
[27] = system: OVCAR-3 ovarian
[28] = system: A549 NSCLC
[29] = system: RPMI-8226 leukemia
[30] = system: NCI-H23 lung
[31] = system: OVCAR-4 ovarian
[32] = system: SF-295 CNS
[33] = system: HS 578T breast
[34] = system: MDA-N
[35] = system: KM12 colon
[36] = system: HCC-2998 colon
[37] = system: SK-OV-3 ovarian
[38] = system: DMS 114 small cell lung
[39] = system: SN12C renal
[40] = system: HOP-62 NSCLC
[41] = system: U251 CNS
[42] = system: DMS 273 small cell lung
[43] = system: MCF7 breast
[44] = system: UO-31 renal
[45] = system: MOLT-4 leukemia
[46] = system: SF-539 CNS
[47] = system: LOX IMVI melanoma
[48] = system: MALME-3M melanoma
[49] = system: OVCAR-5 ovarian
[50] = system: CAKI-1 renal
[51] = system: SK-MEL-2 melanoma
[52] = system: MDA-MB-231 breast
[53] = system: RXF 393 renal
[54] = system: P388 leukemia
[55] = system: HOP-18 NSCLC
[56] = system: T-47D breast
[57] = system: 786-0 renal
[58] = system: OVCAR-8 ovarian
[59] = system: SF-268 CNS
[60] = system: NCI-H226 lung
[61] = system: NCI/ADR-RES ovarian
[62] = system: PC-3 prostate
[63] = system: SNB-19 CNS
[64] = system: HOP-92 NSCLC
[65] = system: MDA-MB-435
[66] = system: A498 renal
[67] = system: EKVX NSCLC
[68] = system: SNB-75 CNS
[69] = system: CCRF-CEM leukemia

`COC(=O)C12OCC34C(CC5C(C)=C(O)C(=O)CC5(C)C3C(O)C1O)OC(=O)C(OC(=O)C=C(C)C)C24` (centres undefined) was tested. Which TGI [1] did it give?
The TGI was 463 nM.

What about the GI50 [2] of the same molecule?
The GI50 was less than 215 nM.

And the TGI [3]?
Its TGI is greater than 476 µM.

And the TGI [4]?
Its TGI is greater than 316 µM.

What about the GI50 [5] of the same molecule?
The GI50 was 226 nM.

And the GI50 [6]?
The GI50 was less than 215 nM.

And the GI50 [7]?
Its GI50 is 231 nM.

What about the TGI [7] of the same molecule?
The TGI was greater than 500 µM.

What about the TGI [8] of the same molecule?
The TGI was greater than 500 µM.

What about the TGI [9] of the same molecule?
The TGI was greater than 8.12 µM.

What about the GI50 [10] of the same molecule?
The GI50 was 231 nM.

What about the TGI [11] of the same molecule?
Its TGI is greater than 500 µM.

What about the TGI [12] of the same molecule?
The TGI was greater than 79.3 µM.

And the TGI [13]?
Its TGI is greater than 500 µM.

What about the GI50 [14] of the same molecule?
Its GI50 is less than 215 nM.

What about the GI50 [15] of the same molecule?
The GI50 was less than 215 nM.

And the TGI [16]?
Its TGI is greater than 500 µM.

What about the TGI [17] of the same molecule?
Its TGI is greater than 500 µM.

And the TGI [18]?
Its TGI is 582 nM.

What about the TGI [19] of the same molecule?
The TGI was 726 nM.

And the TGI [20]?
Its TGI is greater than 500 µM.

What about the GI50 [21] of the same molecule?
Its GI50 is less than 215 nM.

What about the TGI [21] of the same molecule?
Its TGI is greater than 500 µM.

And the TGI [22]?
Its TGI is 359 nM.

And the GI50 [23]?
The GI50 was less than 215 nM.

And the GI50 [24]?
Its GI50 is 456 nM.

What about the TGI [25] of the same molecule?
The TGI was greater than 500 µM.

And the TGI [26]?
Its TGI is greater than 500 µM.

And the TGI [27]?
The TGI was greater than 500 µM.

And the TGI [28]?
The TGI was greater than 500 µM.

And the TGI [29]?
Its TGI is greater than 500 µM.

And the GI50 [30]?
The GI50 was less than 215 nM.

And the GI50 [31]?
Its GI50 is greater than 500 µM.

And the GI50 [32]?
Its GI50 is 232 nM.

What about the TGI [33] of the same molecule?
The TGI was 2030 nM.

And the TGI [34]?
Its TGI is 481 nM.

What about the GI50 [35] of the same molecule?
The GI50 was less than 215 nM.

What about the TGI [35] of the same molecule?
The TGI was greater than 500 µM.

What about the GI50 [36] of the same molecule?
The GI50 was less than 156 nM.

And the TGI [37]?
Its TGI is greater than 500 µM.

What about the TGI [38] of the same molecule?
Its TGI is greater than 460 µM.

What about the GI50 [39] of the same molecule?
The GI50 was 320 nM.

And the TGI [40]?
The TGI was greater than 500 µM.

What about the TGI [41] of the same molecule?
The TGI was greater than 500 µM.

And the TGI [42]?
The TGI was greater than 500 µM.

What about the TGI [43] of the same molecule?
The TGI was greater than 500 µM.

And the GI50 [44]?
Its GI50 is 576 nM.

And the TGI [45]?
The TGI was greater than 500 µM.

What about the TGI [46] of the same molecule?
Its TGI is greater than 500 µM.

And the TGI [47]?
Its TGI is greater than 500 µM.

And the GI50 [48]?
Its GI50 is less than 215 nM.

And the GI50 [49]?
Its GI50 is 245 nM.

What about the GI50 [50] of the same molecule?
The GI50 was 899 nM.

And the GI50 [51]?
Its GI50 is less than 215 nM.

And the TGI [52]?
The TGI was 90.5 nM.

And the GI50 [53]?
The GI50 was 231 nM.

And the TGI [54]?
The TGI was greater than 500 µM.

And the TGI [55]?
The TGI was greater than 500 µM.

What about the TGI [56] of the same molecule?
The TGI was 78.9 nM.

What about the TGI [57] of the same molecule?
The TGI was 689 nM.

What about the GI50 [58] of the same molecule?
Its GI50 is 222 nM.

And the GI50 [59]?
Its GI50 is 344 nM.

And the TGI [59]?
Its TGI is greater than 500 µM.

What about the GI50 [60] of the same molecule?
The GI50 was less than 215 nM.

What about the GI50 [61] of the same molecule?
The GI50 was 4.34 µM.

And the TGI [62]?
Its TGI is 631 nM.

And the GI50 [63]?
Its GI50 is less than 215 nM.

And the TGI [63]?
The TGI was greater than 500 µM.

And the TGI [64]?
The TGI was 494 µM.

And the TGI [65]?
The TGI was 905 nM.

And the TGI [66]?
The TGI was greater than 500 µM.

And the TGI [67]?
Its TGI is greater than 500 µM.

What does the source list for `CCN(CC)c1c(C)c(C(=O)OC)nn1-c1ccccc1`?
TGI [2]: > 100 µM; TGI [3]: > 100 µM; TGI [4]: > 100 µM; TGI [5]: > 100 µM; TGI [6]: > 100 µM; TGI [7]: > 100 µM; TGI [8]: > 100 µM; TGI [10]: > 100 µM; TGI [11]: > 100 µM; TGI [12]: > 100 µM; TGI [13]: > 100 µM; TGI [14]: > 100 µM; TGI [15]: > 100 µM; TGI [16]: > 100 µM; TGI [17]: > 100 µM; TGI [20]: > 100 µM; TGI [21]: > 100 µM; TGI [23]: > 100 µM; TGI [68]: > 100 µM; TGI [24]: > 100 µM; TGI [25]: > 100 µM; TGI [26]: > 100 µM; TGI [27]: > 100 µM; TGI [28]: > 100 µM; TGI [29]: > 100 µM; TGI [30]: > 100 µM; TGI [31]: > 100 µM; TGI [32]: > 100 µM; TGI [35]: > 100 µM; TGI [36]: > 100 µM; TGI [37]: > 100 µM; TGI [38]: > 100 µM; TGI [39]: > 100 µM; TGI [40]: > 100 µM; TGI [41]: > 100 µM; TGI [42]: > 100 µM; TGI [43]: > 100 µM; TGI [44]: > 100 µM; TGI [45]: > 100 µM; TGI [69]: > 100 µM; TGI [46]: > 100 µM; TGI [47]: > 100 µM; TGI [48]: > 100 µM; TGI [49]: > 100 µM; TGI [50]: > 86.3 µM; TGI [51]: > 100 µM; TGI [53]: > 100 µM; TGI [54]: > 100 µM; TGI [55]: > 100 µM; TGI [58]: > 100 µM; TGI [59]: > 100 µM; TGI [60]: > 100 µM; TGI [61]: > 100 µM; TGI [63]: > 100 µM; TGI [64]: > 100 µM; TGI [66]: > 100 µM; TGI [67]: > 100 µM
